According to article PMC9034021 (RSC Advances, 2021):

What was measured:
[1] = molecular target: BuChE (from equine serum) (Equus caballus, UniProt P81908); test: BuChE inhibitory activity, Ellman's method with slight modification; format: biochemical
[2] = molecular target: AChE (from Electrophorus electricus) (Electrophorus electricus, UniProt O42275); test: biochemical; format: biochemical
Chain of AChE (from Electrophorus electricus) (O42275 24-633): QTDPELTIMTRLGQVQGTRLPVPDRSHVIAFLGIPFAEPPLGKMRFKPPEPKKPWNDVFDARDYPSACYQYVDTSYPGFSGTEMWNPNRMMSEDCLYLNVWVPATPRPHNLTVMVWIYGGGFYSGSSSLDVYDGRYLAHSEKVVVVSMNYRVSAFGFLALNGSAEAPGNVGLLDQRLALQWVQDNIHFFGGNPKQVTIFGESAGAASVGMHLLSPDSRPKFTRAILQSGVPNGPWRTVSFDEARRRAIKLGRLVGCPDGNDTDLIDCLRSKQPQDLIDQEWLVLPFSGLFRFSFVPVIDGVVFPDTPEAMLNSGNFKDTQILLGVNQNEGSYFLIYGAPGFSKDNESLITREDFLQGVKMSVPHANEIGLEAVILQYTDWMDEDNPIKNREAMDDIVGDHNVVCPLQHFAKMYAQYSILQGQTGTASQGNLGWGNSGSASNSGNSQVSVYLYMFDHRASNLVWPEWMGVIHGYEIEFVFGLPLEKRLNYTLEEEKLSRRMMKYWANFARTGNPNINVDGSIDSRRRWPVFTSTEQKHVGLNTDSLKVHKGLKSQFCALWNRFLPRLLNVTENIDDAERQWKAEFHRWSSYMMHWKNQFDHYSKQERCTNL

Chain of BuChE (from equine serum) (P81908 whole entry): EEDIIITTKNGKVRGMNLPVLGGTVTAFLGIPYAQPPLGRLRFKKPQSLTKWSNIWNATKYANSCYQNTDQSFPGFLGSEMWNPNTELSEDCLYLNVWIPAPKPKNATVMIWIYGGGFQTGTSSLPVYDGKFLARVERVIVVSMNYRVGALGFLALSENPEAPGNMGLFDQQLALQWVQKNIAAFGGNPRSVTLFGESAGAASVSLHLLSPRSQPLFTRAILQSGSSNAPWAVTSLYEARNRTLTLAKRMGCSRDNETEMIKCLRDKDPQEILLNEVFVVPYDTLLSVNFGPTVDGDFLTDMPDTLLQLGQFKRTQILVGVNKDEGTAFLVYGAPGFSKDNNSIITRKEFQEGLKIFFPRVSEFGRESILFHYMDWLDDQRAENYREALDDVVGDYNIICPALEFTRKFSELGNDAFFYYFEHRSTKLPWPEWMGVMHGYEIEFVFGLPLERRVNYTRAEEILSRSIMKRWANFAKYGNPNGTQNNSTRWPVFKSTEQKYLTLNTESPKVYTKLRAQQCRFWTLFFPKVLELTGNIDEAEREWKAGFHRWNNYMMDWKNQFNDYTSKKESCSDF

How did the “anti-BuChE activity, fold increase of the dehydroaporphine” value ([1]; relative to the aporphine group, comparator not named) turn out when `COc1cc2cc3c4c(cc5c(c4c2cc1OC)OCO5)CCN3C` [Compound 42, dehydrodicentrine] was run?
Its value is 4.7 fold.

Which IC50 [1] does the source give for `COc1cc2c(cc1O)C(Cc1ccc(O)cc1)NCC2` (stereo not shown) [Compound 44, coclaurine] here?
Its IC50 is 20.5 ± 0.42 µM.

And the IC50 [2]?
Its IC50 is 40.9 ± 0.67 µM.

How did the IC50 [1] turn out when `COc1cc2c(cc1OC)[C@@H]1Cc3ccc(OC)c(OC)c3CN1CC2` [Compound 14, tetrahydropalmatine] was run?
The IC50 was 65.3 ± 0.8 µM.

For `COc1ccc2c(c1OC)CC1c3c(cc4c(c3-2)OCO4)CCN1C` (stereo not shown) [Compound 25, crebanine], which IC50 [1] is on record?
Its IC50 is 10.5 ± 0.27 µM.

And the “anti-BuChE activity, fold higher than that of 26” value [1]?
The value was 2.5 fold.

And the IC50 [2]?
Its IC50 is 17.4 ± 0.22 µM.

What about the “anti-AChE activity, fold less active than the 9,10-dimethoxy analogue 26” value [2] of the same compound?
The value was 2.8 fold.

Which IC50 [1] does the source give for `COc1cc2c(cc1O)[C@@H]1Cc3ccc(O)c(OC)c3CN1CC2` [Compound 12, stepholidine] here?
The IC50 was 221.2 ± 1.62 µM.

With `COc1cc2c(cc1O)CC[n+]1cc3c(OC)c(OC)ccc3cc1-2` [Compound 18, jatrorrhizine] as the compound, how does the IC50 [1] read?
The IC50 was 31.46 ± 0.2 µM.

And the IC50 [2]?
The IC50 was 12.3 ± 0.44 µM.

How did the “BuChE inhibition, fold more active than galanthamine” value [1] turn out when `CN1CCc2cc3c(c4c2C1Cc1ccccc1-4)OCO3` (stereo not shown) [Compound 22, roemerine] was run?
The value was “approximately 1.3 fold”.

And the IC50 [1]?
Its IC50 is 2.85 ± 0.08 µM.

And the IC50 [2]?
The IC50 was 8.32 ± 0.12 µM.

Which IC50 [2] does the source give for `COC1=C[C@]23CCN(C)[C@H](Cc4ccc(OC)c(O)c42)C3=CC1=O` [Compound 45, salutaridine] here?
Its IC50 is 7.49 ± 0.66 µM.

For `COc1cc2c(cc1OC)-c1c3c(cc4ccnc(c14)C2=O)OCO3` [Compound 35, dicentrinone], which IC50 [2] is on record?
Its IC50 is 265.8 ± 0.8 µM.
